Experimental data taken from ChEMBL document CHEMBL4316582, “Nitro-Group-Containing Drugs” (J Med Chem, 2019).
In brackets after ≈: the same amount, converted by molar mass.

The compounds below were run on Mycobacterium tuberculosis (assay: Antitubercular activity against multidrug-resistant Mycobacterium tuberculosis).
Assay type: functional

Compound	MIC [µg/mL]
O=[N+]([O-])C1CN2C[C@H](OCc3ccc(OC(F)(F)F)cc3)COC2=N1 (stereo partly drawn)	0.039 to 0.531 (≈ 0.108 to 1.47 µM)
[O-]/[N+](O)=C1/CN2C[C@H](OCc3ccc(OC(F)(F)F)cc3)COC2=N1	0.039 to 0.531 (≈ 0.108 to 1.47 µM)
FC(F)(F)Oc1ccc(CO[C@@H]2COc3nccn3C2)cc1	0.039 to 0.531 (≈ 0.124 to 1.69 µM)
